Measured values taken from patent US10975030B2, “Grp94 selective inhibitors and uses thereof” (University of Kansas, priority 2016, dated 2021).
“And” between values parts separate entries of the source, which are not always exact repeats. Equal values may be shown once.

Columns and labels:
[1] = biological target: Grp94 (recombinant cGrp94) (Canis lupus familiaris (Dog) (Canis familiaris), UniProt P41148); test: Fluorescence polarization (FP) assay, cGrp94 with FITC-GDA; assay type: binding; details: apparent Kd, cGrp94 and FITC-GDA, triplicates, ± SEM, read-out: Kd Grp94
Description: (§1) Fluorescence Polarization. Assay buffer (25 μL, 20 mM HEPES pH 7.3, 50 mM KCl, 5 mM MgCl2, 1 mM DTT, 20 mM Na2MoO4, 0.01% NP-40, and 0.5 mg/mL BGG) was added to 96-well plate (black well, black bottom) followed by the desired compound at the indicated final concentrations in DMSO (1% DMSO final concentration). […] Plates were incubated with rocking for 5 h at 4° C. […] Percent FITC-GDA bound was determined by using the DMSO millipolarization unit (mP) as the 100% bound value and the 0% for FITC-GDA. Kd values were calculated from separate experiments performed in triplicate using GraphPad Prism.

Hsp90α = Hsp90α (Homo sapiens (Human), UniProt P07900); test: Fluorescence polarization (FP) assay, Hsp90α; assay type: binding
Description: as §1

Grp94 (recombinant cGrp94), sequence (P41148 22-804): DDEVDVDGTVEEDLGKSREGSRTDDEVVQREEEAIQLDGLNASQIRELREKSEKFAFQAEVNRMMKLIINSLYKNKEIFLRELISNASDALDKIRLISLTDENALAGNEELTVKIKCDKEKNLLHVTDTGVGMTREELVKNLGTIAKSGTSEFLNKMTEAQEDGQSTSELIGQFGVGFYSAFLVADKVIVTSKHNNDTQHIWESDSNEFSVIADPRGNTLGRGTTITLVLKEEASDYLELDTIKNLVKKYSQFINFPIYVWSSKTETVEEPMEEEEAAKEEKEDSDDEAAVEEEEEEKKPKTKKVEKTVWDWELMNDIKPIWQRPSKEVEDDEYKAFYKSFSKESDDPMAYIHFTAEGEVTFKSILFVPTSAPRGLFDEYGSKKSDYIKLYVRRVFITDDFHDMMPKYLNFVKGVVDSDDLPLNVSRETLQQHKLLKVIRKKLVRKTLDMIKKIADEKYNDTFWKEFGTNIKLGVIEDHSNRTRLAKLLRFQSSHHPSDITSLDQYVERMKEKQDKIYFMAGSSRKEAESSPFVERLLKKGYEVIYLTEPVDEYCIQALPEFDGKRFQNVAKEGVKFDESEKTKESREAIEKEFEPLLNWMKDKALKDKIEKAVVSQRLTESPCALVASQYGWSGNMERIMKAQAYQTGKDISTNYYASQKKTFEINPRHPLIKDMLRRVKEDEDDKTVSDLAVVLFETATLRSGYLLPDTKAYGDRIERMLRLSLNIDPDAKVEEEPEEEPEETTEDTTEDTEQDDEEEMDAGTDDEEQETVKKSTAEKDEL

SMILES | Kd [1] | Kd (Hsp90α) [µM]
Cc1ccc(-c2cccn2-c2ccc(C(N)=O)c(N[C@H]3CC[C@H](O)CC3)c2)cc1 [Compound 5d, 2-(((1r,4r)-4-hydroxycyclohexyl)amino)-4-(2-(p-tolyl)-1H-pyrrol-1-yl)benzamide] | 8.35 ± 0.14 µM | > 100
Cc1cccc(-c2cccn2-c2ccc(C(N)=O)c(N[C@H]3CC[C@H](O)CC3)c2)c1 [Compound 5c, 2-(((1r,4r)-4-hydroxycyclohexyl)amino)-4-(2-(m-tolyl)-1H-pyrrol-1-yl)benzamide] | 9.43 ± 0.26 µM | > 100
NC(=O)c1ccc(-n2cccc2-c2ccccn2)cc1N[C@H]1CC[C@H](O)CC1 [Compound 5h, 2-(((1r,4r)-4-hydroxycyclohexyl)amino)-4-(2-(pyridin-2-yl)-1H-pyrrol-1-yl)benzamide] | 14 ± 0.27 µM | > 100
NC(=O)c1ccc(-n2cccc2Cc2ccccc2Br)cc1N[C@H]1CC[C@H](O)CC1 [Compound 8h, 4-(2-(2-bromobenzyl)-1H-pyrrol-1-yl)-2-(((1r,4r)-4-hydroxycyclohexyl)amino)benzamide] | 12.9 ± 0.11 µM | > 100
NC(=O)c1ccc(-n2cccc2CCc2ccccc2)cc1N[C@H]1CC[C@H](O)CC1 [Compound 9, 2-(((1r,4r)-4-hydroxycyclohexyl)amino)-4-(2-phenethyl-1H-pyrrol-1-yl)benzamide] | > 25 µM | > 100
Cc1ccccc1Cc1cccn1-c1ccc(C(N)=O)c(N[C@H]2CC[C@H](O)CC2)c1 [Compound 8i, 2-(((1r,4r)-4-hydroxycyclohexyl)amino)-4-(2-(2-methylbenzyl)-1H-pyrrol-1-yl)benzamide] | 4.2 ± 0.23 µM | > 100
NC(=O)c1ccc(-n2cccc2Cc2cccnc2)cc1N[C@H]1CC[C@H](O)CC1 [Compound 8p, 2-(((1r,4r)-4-hydroxycyclohexyl)amino)-4-(2-(pyridin-3-ylmethyl)-1H-pyrrol-1-yl) benzamide] | 5.5 ± 0.15 µM | > 100
NC(=O)c1ccc(-n2cccc2-c2ccncc2)cc1N[C@H]1CC[C@H](O)CC1 [Compound 5j, 2-(((1r,4r)-4-hydroxycyclohexyl)amino)-4-(2-(pyridin-4-yl)-1H-pyrrol-1-yl)benzamide] | 13.2 ± 0.12 µM | > 100
NC(=O)c1ccc(-n2cccc2-c2ccc(Cl)cc2)cc1N[C@H]1CC[C@H](O)CC1 [Compound 5g, 4-(2-(4-chlorophenyl)-1H-pyrrol-1-yl)-2-(((1r,4r)-4-hydroxycyclohexyl)amino)benzamide] | 10.6 ± 0.54 µM | > 100
COc1ccccc1Cc1cccn1-c1ccc(C(N)=O)c(N[C@H]2CC[C@H](O)CC2)c1 [Compound 8m, 2-(((1r,4r)-4-hydroxycyclohexyl)amino)-4-(2-(2-methoxybenzyl)-1H-pyrrol-1-yl)benzamide] | 1.15 µM | > 100
NC(=O)c1ccc(-n2cccc2Cc2ccc(Cl)cc2)cc1N[C@H]1CC[C@H](O)CC1 [Compound 8d, 4-(2-(4-chlorobenzyl)-1H-pyrrol-1-yl)-2-(((1r,4r)-4-hydroxycyclohexyl)amino)benzamide] | > 25 µM | > 100
NC(=O)c1ccc(-n2cccc2Cc2ccccc2Cl)cc1N[C@H]1CC[C@H](O)CC1 [Compound 8b, 4-(2-(2-chlorobenzyl)-1H-pyrrol-1-yl)-2-(((1r,4r)-4-hydroxycyclohexyl)amino)benzamide] | 0.83 ± 0.12 µM | > 100
NC(=O)c1ccc(-n2cccc2Cc2cccc(Cl)c2)cc1N[C@H]1CC[C@H](O)CC1 [Compound 8c] | 2.45 ± 0.45 µM | > 100
NC(=O)c1ccc(-n2cccc2Cc2c(F)cccc2F)cc1N[C@H]1CC[C@H](O)CC1 [Compound 8n, 4-(2-(2,6-difluorobenzyl)-1H-pyrrol-1-yl)-2-(((1r,4r)-4hydroxycyclohexyl)amino)benzamide] | > 25 µM | > 100
NC(=O)c1ccc(-n2cccc2Cc2ccc(O)cc2)cc1N[C@H]1CC[C@H](O)CC1 [Compound 8l, 4-(2-(4-hydroxybenzyl)-1H-pyrrol-1-yl)-2-(((1r,4r)-4-hydroxycyclohexyl)amino)benzamide] | – | > 100
NC(=O)c1ccc(-n2cccc2Cc2ccccn2)cc1N[C@H]1CC[C@H](O)CC1 [Compound 8o, 2-(((1r,4r)-4-hydroxycyclohexyl)amino)-4-(2-(pyridin-2-ylmethyl)-1H-pyrrol-1-yl)benzamide] | 14 ± 0.27 µM | > 100
NC(=O)c1ccc(-n2cccc2Cc2ccccc2)cc1N[C@H]1CC[C@H](O)CC1 [Compound 8a, 4-(2-benzyl-1H-pyrrol-1-yl)-2-(((1r,4r)-4-hydroxycyclohexyl)amino)benzamide] | ~1.3 µM and 1.13 µM | > 100
NC(=O)c1ccc(-n2cccc2-c2cccnc2)cc1N[C@H]1CC[C@H](O)CC1 [Compound 5i, 2-(((1r,4r)-4-hydroxycyclohexyl)amino)-4-(2-(pyridin-3-yl)-1H-pyrrol-1-yl)benzamide] | 5.5 ± 0.15 µM | > 100
NC(=O)c1ccc(-n2cccc2-c2ccccc2)cc1N[C@H]1CC[C@H](O)CC1 [Compound 5a, 2-(((1r,4r)-4-hydroxycyclohexyl)amino)-4-(2-phenyl-1H-pyrrol-1-yl)benzamide] | ~9 µM and 9.05 µM | > 100
NC(=O)c1ccc(-n2cccc2-c2ccccc2Cl)cc1N[C@H]1CC[C@H](O)CC1 [Compound 5e, 4-(2-(2-chlorophenyl)-1H-pyrrol-1-yl)-2-(((1r,4r)-4-hydroxycyclohexyl)amino)benzamide] | – | > 100
NC(=O)c1ccc(-n2cccc2Cc2ccncc2)cc1N[C@H]1CC[C@H](O)CC1 [Compound 8q, 2-(((1r,4r)-4-hydroxycyclohexyl)amino)-4-(2-(pyridin-4-ylmethyl)-1H-pyrrol-1-yl)benzamide] | 13.2 ± 0.12 µM | > 100
NC(=O)c1ccc(-n2cccc2-c2cccc(Cl)c2)cc1N[C@H]1CC[C@H](O)CC1 [Compound 5f, 4-(2-(3-chlorophenyl)-1H-pyrrol-1-yl)-2-(((1r,4r)-4-hydroxycyclohexyl)amino)benzamide] | – | > 100
Cc1ccccc1-c1cccn1-c1ccc(C(N)=O)c(N[C@H]2CC[C@H](O)CC2)c1 [Compound 5b, 2-(((1r,4r)-4-hydroxycyclohexyl)amino)-4-(2-(o-tolyl)-1H-pyrrol-1-yl)benzamide] | 9.9 ± 0.54 µM | > 100
NC(=O)c1ccc(-n2cccc2Cc2cccc(O)c2)cc1N[C@H]1CC[C@H](O)CC1 [Compound 8k, 4-(2-(3-hydroxybenzyl)-1H-pyrrol-1-yl)-2-(((1r,4r)-4-hydroxycyclohexyl)amino)benzamide] | > 25 µM | > 100
NC(=O)c1ccc(-n2cccc2Cc2ccc(F)cc2)cc1N[C@H]1CC[C@H](O)CC1 [Compound 8g, 4-(2-(4-fluorobenzyl)-1H-pyrrol-1-yl)-2-(((1r,4r)-4-hydroxycyclohexyl)amino)benzamide] | 8.35 ± 0.14 µM | > 100
NC(=O)c1ccc(-n2cccc2Cc2cccc(F)c2)cc1N[C@H]1CC[C@H](O)CC1 [Compound 8f, 4-(2-(3-fluorobenzyl)-1H-pyrrol-1-yl)-2-(((1r,4r)-4-hydroxycyclohexyl)amino)benzamide] | 4.53 ± 0.12 µM | > 100
